The assay has as its target T1, human GPR119 receptor (Homo sapiens, UniProt Q8TDV5).
T1 construct: host or cells: GeneBLAzer T-Rex GPR 119 CHO-K1 DA cells (CHO-K1)
T1 sequence (Q8TDV5 1-335): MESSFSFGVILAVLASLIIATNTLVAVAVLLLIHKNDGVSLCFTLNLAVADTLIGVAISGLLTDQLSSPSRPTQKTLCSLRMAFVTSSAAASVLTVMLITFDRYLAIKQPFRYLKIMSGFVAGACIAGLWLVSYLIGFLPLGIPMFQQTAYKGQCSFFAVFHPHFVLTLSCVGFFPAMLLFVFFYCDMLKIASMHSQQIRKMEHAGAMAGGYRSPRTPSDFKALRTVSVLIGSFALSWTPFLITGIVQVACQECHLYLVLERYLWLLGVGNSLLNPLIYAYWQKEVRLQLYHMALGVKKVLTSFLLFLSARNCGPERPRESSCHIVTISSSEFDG
In words: Activity test for human GPR119 receptor (GeneBLAzer T-Rex GPR 119 CHO-K1 DA cells, fluorescence reporter). It is filed as cell-based. The note with it: 5 hours treatment; for activity at 0.1 µM: test compound conc. 0.1 μM; for activity at 0.1 µM / activity at 1 µM / activity at 10 µM: human GPR119 CHO-K1 reporter cells, ratio to vehicle control well, read-out: % Activation; for activity at 1 µM: test compound conc. 1 μM; for activity at 10 µM: test compound conc. 10 μM; for % Activation: human GPR119 receptor expressing cell, test concentrations 0.1, 1, 10 μM (concentration not given). The method, then: As a human GPR119 receptor expression cell for this test, the cell line “GeneBLAzer™ T-Rex GPR 119 CHO-K1 DA cells” that is commercially available from Invitrogen, was used. The cell was incubated in the DMEM media containing 1% dialyzed fetal bovine serum etc. The cell incubator was kept at constant temperature and constant humidity of 37° C., 5% CO2.
The human GPR119 receptor expressing cell was used to this test. Each of test compounds was added to be final concentrations of 0.1, 1, 10 μM in 96 well and tested in duplicate. A fixed amount of cell was added to each well of 96 well separately, and then treated with the test compound for 5 hours. After treatment of color development agent for 2 hours, the fluorescence value was determined with plate reader. To the luminous wavelength of control well, which was not treated with the agonist sample, but in which only a vehicle (i.e., cell) was contained, the ratio of the luminous wavelength of test well, which was treated with the agonist sample, was calculated, and then converted to obtain % value.
All the results were expressed as mean±SD, and each test groups and the control group were compared using student's t-test to adjudge the effects of each test groups.

Take `O=C(c1ccc(-c2ccc(OCC3CCN(CC4(C(F)(F)F)CCC4)CC3)cc2)cc1)N1CCC[C@@H](O)C1` [Compound 794, (R)-(3-hydroxypiperidin-1-yl)(4′-((1-((1-(trifluoromethyl)cyclobutyl)methyl)piperidin-4-yl)methoxy)biphenyl-4-yl)methanone]: the activity at 0.1 µM amounted to 256%, the activity at 1 µM came out at 296% and the activity at 10 µM was 252%.

For `CC(C)(F)CN1CCC(COc2ccc(-c3ccc(C(=O)N4CCC[C@@H]4CO)c(F)c3)cc2)CC1` [Compound 641, (R)-(3-fluoro-4′-((1-(2-fluoro-2-methylpropyl)piperidin-4-yl)methoxy)biphenyl-4-yl)(2-(hydroxymethyl)pyrrolidine-1-yl)methanone], the activity at 0.1 µM came to 167%, the activity at 1 µM came to 220% and the activity at 10 µM worked out at 246%.

`CC(C)(CN1CCC(COc2ccc(-c3ccc(C(=O)N4CCC[C@@H](O)C4)cc3)cn2)CC1)C(F)(F)F` [Compound 829, (R)-(3-hydroxypiperidin-1-yl)(4-(6-((1-(3,3,3-trifluoro-2,2-dimethylpropyl)piperidin-4-yl)methoxy)pyridin-3-yl)phenyl)methanone]: the activity at 0.1 µM was 257%, the activity at 1 µM was 313% and the activity at 10 µM came out at 303%.

On to `CS(=O)(=O)c1ccc(-c2ccc(OCC3CCN(CC4(C(F)(F)F)CCC4)CC3)cc2)cc1` [Compound 542, 4-((4′-(methylsulfonyl)biphenyl-4-yloxy)methyl)-1-((1-(trifluoromethyl)cyclobutyl)methyl)piperidine], for which the activity at 0.1 µM was found to be 256%, the activity at 1 µM came to 347% and the activity at 10 µM amounted to 376%.

Take `CC(C)(F)CN1CCC(COc2ccc(-c3ccc(C(=O)N4CC[C@@H](O)C4)cc3)cc2)CC1` [Compound 553, (R)-(4′-((1-(2-fluoro-2-methylpropyl)piperidin-4-yl)methoxy)biphenyl-4-yl)(3-hydroxypyrrolidine-1-yl)methanone]: the activity at 0.1 µM came out at 149%, the activity at 1 µM was 204% and the activity at 10 µM came to 253%.

`O=C(c1ccc(-c2ccc(OCC3CCN(CC4(C(F)(F)F)CC4)CC3)nc2)cc1)N1CCC(CO)CC1` [Compound 587, (4-(hydroxymethyl)piperidin-1-yl)(4-(6-((1-((1-(trifluoromethyl)cyclopropyl)methyl)piperidin-4-yl)methoxy)pyridine-3-yl)phenyl)methanone]: the activity at 0.1 µM came to 227%, the activity at 1 µM was found to be 288% and the activity at 10 µM was found to be 297%.

On to `CC(C)(F)CN1CCC(COc2ccc(-c3ccc(C(=O)N4CCC(F)(F)C4)cc3)cc2)CC1` [Compound 629, (3,3-difluoropyrrolidine-1-yl)(4′-((1-(2-fluoro-2-methylpropyl)piperidin-4-yl)methoxy)biphenyl-4-yl)methanone], for which the activity at 0.1 µM is 199%, the activity at 1 µM was found to be 229% and the activity at 10 µM worked out at 269%.

As for `CCC(F)(CC)CN1CCC(COc2ccc(-c3ccc(C(=O)N4CCC[C@H]4C(N)=O)cc3F)cc2C#N)CC1` [Compound 1119, (S)-1-(3′-cyano-4′-((1-(2-ethyl-2-fluorobutyl)piperidin-4-yl)methoxy)-2-fluorobiphenylcarbonyl)pyrrolidine-2-carboxamide], the activity at 0.1 µM was 406%, the activity at 1 µM stood at 428% and the activity at 10 µM turned out to be 482%.

For the molecule `NC(=O)[C@H]1CCCCN1C(=O)c1ccc(-c2ccc(OCC3CCN(CC4(C(F)(F)F)CCC4)CC3)c(F)c2)cc1` [Compound 886, (R)-1-(3′-fluoro-4′-((1-((1-(trifluoromethyl)cyclobutyl)methyl)piperidin-4-yl)methoxy)biphenylcarbonyl)piperidin-2-carboxamide], the activity at 0.1 µM amounted to 164%, the activity at 1 µM was determined as 241% and the activity at 10 µM came out at 246%.

For `CC(C)(F)CN1CCC(COc2ccc(-c3ccc(C(=O)N4CCC[C@H]4C(N)=O)c(F)c3)c(C#N)c2)CC1` [Compound 1028], the “% Activation” value turned out to be 402%, the activity at 0.1 µM came to 187%, the activity at 1 µM is 348% and the activity at 10 µM was 402%.

Consider `CCC(F)(CC)CN1CCC(COc2ccc(-c3ccc(C(=O)N4CCC[C@H]4C(N)=O)c(F)c3)cc2C#N)CC1` [Compound 1000, (S)-1-(3′-cyano-4′-((1-(2-ethyl-2-fluorobutyl)piperidin-4-yl)methoxy)-3-fluorobiphenylcarbonyl)pyrrolidine-2-carboxamide], for which the activity at 0.1 µM was determined as 311%, the activity at 1 µM stood at 367% and the activity at 10 µM came out at 374%.

Consider `CN(CCO)C(=O)c1ccc(-c2ccc(OCC3CCN(CC(C)(C)F)CC3)cc2)cc1` [Compound 551, 4′-((1-(2-fluoro-2-methylpropyl)piperidin-4-yl)methoxy)-N-(2-hydroxyethyl)-N-methylbiphenyl-4-carboxamide], for which the activity at 0.1 µM turned out to be 135%, the activity at 1 µM was determined as 232% and the activity at 10 µM was found to be 288%.

For the molecule `O=C(c1ccc(-c2cnc(OCC3CCN(CC4(C(F)(F)F)CCC4)CC3)cn2)cc1F)N1CCC[C@@H](O)C1` [Compound 1013, (R)-(2-fluoro-4-(5-((1-((1-(trifluoromethyl)cyclobutyl)methyl)piperidin-4-yl)methoxy)pyrazine-2-yl)phenyl)(3-hydroxypiperidin-1-yl)methanone], the “% Activation” value is listed as 490%, the activity at 0.1 µM amounted to 410%, the activity at 1 µM amounted to 490% and the activity at 10 µM was 426%.

Consider `NC(=O)[C@@H]1CCCN1C(=O)c1ccc(-c2ccc(OCC3CCN(CC4(C(F)(F)F)CCC4)CC3)nc2)cc1F` [Compound 722, (S)-1-(2-fluoro-4-(6-((1-((1-(trifluoromethyl)cyclobutyl)methyl)piperidin-4-yl)methoxy)pyridine-3-yl)benzoyl)pyrrolidine-2-carboxamide], for which the activity at 0.1 µM was found to be 198%, the activity at 1 µM was 269% and the activity at 10 µM was determined as 261%.

Take `NC(=O)[C@@H]1CCCN1C(=O)c1ccc(-c2ccc(OCC3CCN(CC4(C(F)(F)F)CCC4)CC3)cc2)cc1` [Compound 635, (S)-1-(4′-((1-((1-(trifluoromethyl)cyclobutyl)methyl)piperidin-4-yl)methoxy)biphenylcarbonyl)pyrrolidine-2-carboxamide]: the activity at 0.1 µM was 265%, the activity at 1 µM turned out to be 305% and the activity at 10 µM came out at 239%.

`CC(C)(F)CN1CCC(COc2ccc(-c3ccc(C(=O)N4CCC[C@@H]4CO)cc3)cc2)CC1` [Compound 555, (R)-(4′-((1-(2-fluoro-2-methylpropyl)piperidin-4-yl)methoxy)biphenyl-4-yl)(2-(hydroxymethyl)pyrrolidine-1-yl)methanone]: the activity at 0.1 µM worked out at 190%, the activity at 1 µM worked out at 269% and the activity at 10 µM stood at 272%.

Take `NC(=O)[C@@H]1CCCN1C(=O)c1ccc(-c2cnc(OCC3CCN(CC4(C(F)(F)F)CCC4)CC3)cn2)cc1` [Compound 1009, (S)-1-(4-(5-((1-((1-(trifluoromethyl)cyclobutyl)metb.yl)piperidin-4-yl)methoxy)pyrazine-2-yl)benzoyl)pyrrolidine-2-carboxamide]: the activity at 0.1 µM was 235%, the activity at 1 µM amounted to 314% and the activity at 10 µM worked out at 340%.

`CS(=O)(=O)c1ccc(-c2ccc(OCC3CCN(CC4(C(F)(F)F)CC4)CC3)cc2)cc1` [Compound 500, 4-((4′-(methylsulfonyl)biphenyl-4-yloxy)methyl)-1-((1-(trifluoromethyl)cyclopropyl)methyl)piperidine]: the activity at 0.1 µM worked out at 214%, the activity at 1 µM was 298% and the activity at 10 µM was 310%.

As to `CC(C)(F)CN1CCC(COc2ccc(-c3ccc(C(=O)N4CCOCC4)cc3)cc2)CC1` [Compound 517, (4′-((1-(2-fluoro-2-methylpropyl)piperidin-4-yl)methoxy)biphenyl-4-yl)(morpholino)methanone], the activity at 0.1 µM was found to be 192%, the activity at 1 µM is 244% and the activity at 10 µM is 291%.

As for `CC(=O)N1CCN(C(=O)c2ccc(-c3ccc(OCC4CCN(CC(C)(C)F)CC4)cc3)cc2)CC1` [Compound 628, 1-(4-(4′-((1-(2-fluoro-2-methylpropyl)piperidin-4-yl)methoxy)biphenylcarbonyl)piperazin-1-yl)ethanone], the activity at 0.1 µM came to 138%, the activity at 1 µM is 210% and the activity at 10 µM was determined as 257%.

The record behind these values is patent publication US9944600B2, “Piperidine derivatives for GPR119 agonist” (CHONG KUN DANG PHARMACEUTICAL CORP., priority 2012, dated 2018).
